Test results taken from BindingDB's records for doi:10.1021/jm00079a024 (Roche Products, 1992).

target: cAMP-dependent protein kinase catalytic subunit alpha (Bos taurus, UniProt P00517); assay: PKA assay; details: not given

Row | Structure (SMILES) | IC50 [µM]
1 | Cn1cc(C2=C(c3cc(Cl)cc(Cl)c3)C(=O)NC2=O)c2ccccc21 [3-(3,5-dichlorophenyl)-4-(1-methyl-1H-indol-3-yl)-2,5-dihydro-1H-pyrrole-2,5-dione] | > 100
2 | Cc1cccc(C2=C(c3cn(C)c4ccccc34)C(=O)NC2=O)c1 [3-(1-methyl-1H-indol-3-yl)-4-(3-methylphenyl)-2,5-dihydro-1H-pyrrole-2,5-dione] | > 100
3 | Cn1cc(C2=C(c3csc4ccccc34)C(=O)NC2=O)c2ccccc21 [3-(1-benzothiophen-3-yl)-4-(1-methyl-1H-indol-3-yl)-2,5-dihydro-1H-pyrrole-2,5-dione] | > 100
4 | Cn1cc(C2=C(c3cccc(N)c3)C(=O)NC2=O)c2ccccc21 [3-(3-aminophenyl)-4-(1-methyl-1H-indol-3-yl)-2,5-dihydro-1H-pyrrole-2,5-dione] | > 100
5 | Cn1cc(C2=C(c3ccccc3)C(=O)NC2=O)c2ccccc21 [3-(1-methyl-1H-indol-3-yl)-4-phenyl-2,5-dihydro-1H-pyrrole-2,5-dione] | > 100
6 | Cn1cc(C2=C(c3cn(C)c4cccc([N+](=O)[O-])c34)C(=O)NC2=O)c2ccccc21 [3-(1-methyl-1H-indol-3-yl)-4-(1-methyl-4-nitro-1H-indol-3-yl)-2,5-dihydro-1H-pyrrole-2,5-dione] | > 100
7 | Cn1cc(C2=C(c3cccc(Cl)c3)C(=O)NC2=O)c2ccccc21 [3-(3-chlorophenyl)-4-(1-methyl-1H-indol-3-yl)-2,5-dihydro-1H-pyrrole-2,5-dione] | > 100

same assay, conditions: pH 8.5; 37 °C

Row | Structure (SMILES) | IC50 [µM]
8 | Cn1cc(C2=C(c3cn(Cc4ccccc4)c4ccccc34)C(=O)NC2=O)c2ccccc21 [3-(1-benzyl-1H-indol-3-yl)-4-(1-methyl-1H-indol-3-yl)-2,5-dihydro-1H-pyrrole-2,5-dione] | > 100

target: Protein kinase C beta type (Rattus norvegicus, UniProt P68403); assay: PKC assay; details: not given
Sequence (P68403 whole entry): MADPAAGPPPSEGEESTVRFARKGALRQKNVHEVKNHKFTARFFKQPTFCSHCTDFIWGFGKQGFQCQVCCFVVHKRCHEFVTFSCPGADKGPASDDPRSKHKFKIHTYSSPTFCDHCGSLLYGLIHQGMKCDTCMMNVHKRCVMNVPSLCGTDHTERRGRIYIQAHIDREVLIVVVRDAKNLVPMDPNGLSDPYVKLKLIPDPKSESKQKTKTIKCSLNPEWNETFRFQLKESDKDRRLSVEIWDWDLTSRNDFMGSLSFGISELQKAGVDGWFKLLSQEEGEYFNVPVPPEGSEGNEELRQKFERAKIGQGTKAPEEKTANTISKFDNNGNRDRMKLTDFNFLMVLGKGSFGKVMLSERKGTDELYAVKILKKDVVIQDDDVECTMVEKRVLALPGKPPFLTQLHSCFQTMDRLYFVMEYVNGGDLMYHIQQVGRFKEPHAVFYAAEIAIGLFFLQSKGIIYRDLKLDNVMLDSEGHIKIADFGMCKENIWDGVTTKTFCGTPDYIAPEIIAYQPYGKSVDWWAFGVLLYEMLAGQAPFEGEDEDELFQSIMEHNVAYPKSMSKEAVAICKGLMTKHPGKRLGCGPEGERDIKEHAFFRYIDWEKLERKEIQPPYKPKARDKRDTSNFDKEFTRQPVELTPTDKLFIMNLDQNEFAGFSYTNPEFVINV

Row | Structure (SMILES) | IC50 [µM]
9 | Cn1cc(C2=C(c3ccc(Cl)cc3)C(=O)NC2=O)c2ccccc21 [3-(4-chlorophenyl)-4-(1-methyl-1H-indol-3-yl)-2,5-dihydro-1H-pyrrole-2,5-dione] | > 100
10 | Cn1cc(C2=C(c3cccc(Oc4ccccc4)c3)C(=O)NC2=O)c2ccccc21 [3-(1-methyl-1H-indol-3-yl)-4-(3-phenoxyphenyl)-2,5-dihydro-1H-pyrrole-2,5-dione] | > 100
11 | Cn1cc(C2=C(c3cn(C)c4ccc(C(=O)O)cc34)C(=O)NC2=O)c2ccccc21 [1-methyl-3-[4-(1-methyl-1H-indol-3-yl)-2,5-dioxo-2,5-dihydro-1H-pyrrol-3-yl]-1H-indole-5-carboxylic acid] | > 50
12 | CSc1ccc(C2=C(c3cn(C)c4ccccc34)C(=O)NC2=O)cc1 [3-(1-methyl-1H-indol-3-yl)-4-[4-(methylsulfanyl)phenyl]-2,5-dihydro-1H-pyrrole-2,5-dione] | > 50
13 | Cn1cc(C2=C(c3ccc(S(C)(=O)=O)cc3)C(=O)NC2=O)c2ccccc21 [3-(4-methanesulfonylphenyl)-4-(1-methyl-1H-indol-3-yl)-2,5-dihydro-1H-pyrrole-2,5-dione] | > 100

same assay, conditions: pH 7.5; 30 °C

Row | Structure (SMILES) | IC50 [µM]
14 | O=C1NC(=O)[C@@H](c2c[nH]c3ccccc23)[C@@H]1c1c[nH]c2ccccc12 [(3R,4R)-3,4-bis(1H-indol-3-yl)pyrrolidine-2,5-dione] | > 100
15 | O=C1NC(=O)[C@@H](c2c[nH]c3ccccc23)[C@H]1c1c[nH]c2ccccc12 [(3R,4S)-3,4-bis(1H-indol-3-yl)pyrrolidine-2,5-dione] | > 100
16 | CN1C(=O)C(c2c[nH]c3ccccc23)=C(c2c[nH]c3ccccc23)C1=O | > 100
17 | O=C1OC(=O)C(c2c[nH]c3ccccc23)=C1c1c[nH]c2ccccc12 [3,4-bis(1H-indol-3-yl)-2,5-dihydrofuran-2,5-dione] | > 100
18 | Cn1cc(C2=C(c3cc4ccccc4n3C)C(=O)NC2=O)c2ccccc21 [3-(1-methyl-1H-indol-2-yl)-4-(1-methyl-1H-indol-3-yl)-2,5-dihydro-1H-pyrrole-2,5-dione] | > 100
